{"source": "PubChem BioAssay AID1963979", "about": "(Molecular Pharmacology Branch, DTP, NCI, 2024);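 note: spheroids exposed to agents for seven days before readout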", "system": "361931-004-R-J1-PDC multicell spheroid viability", "test": "Anticancer human tumor 361931-004-R-J1-PDC patient-derived colon adenocarcinoma cell line growth inhibition [PI3K]", "details": "for IC50: curve of first compound; for viability, T/C: stronger effect = lower value", "outline": "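Three cell types, namely tumor cells, endothelial cells and mesenchymal stem cells, formed each spheroid. Combinations with four PI3K inhibitors were screened at clinically achievable concentrations decreasing by half-log, and spheroid viability was recorded.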", "key": {"[1]": {"details": "second compound 0.00316 µM, first compound 0.000316 µM"}, "[2]": {"details": "second compound 0.00316 µM, first compound 0.001 µM"}, "[3]": {"details": "second compound 0.00316 µM, first compound 0.00316 µM"}, "[4]": {"details": "second compound 0.00316 µM, first compound 0.01 µM"}, "[5]": {"details": "second compound 0.00316 µM, first compound 0.0316 µM"}, "[6]": {"details": "second compound 0.00316 µM, first compound 0.1 µM"}, "[7]": {"details": "second compound 0.01 µM, first compound 0.000316 µM"}, "[8]": {"details": "second compound 0.01 µM, first compound 0.001 µM"}, "[9]": {"details": "second compound 0.01 µM, first compound 0.00316 µM"}, "[10]": {"details": "second compound 0.01 µM, first compound 0.01 µM"}, "[11]": {"details": "second compound 0.01 µM, first compound 0.0316 µM"}, "[12]": {"details": "second compound 0.01 µM, first compound 0.1 µM"}, "[13]": {"details": "second compound 0.0316 µM, first compound 0.000316 µM"}, "[14]": {"details": "second compound 0.0316 µM, first compound 0.001 µM"}, "[15]": {"details": "second compound 0.0316 µM, first compound 0.00316 µM"}, "[16]": {"details": "second compound 0.0316 µM, first compound 0.01 µM"}, "[17]": {"details": "second compound 0.0316 µM, first compound 0.0316 µM"}, "[18]": {"details": "second compound 0.0316 µM, first compound 0.1 µM"}, "[19]": {"details": "second compound 0.1 µM, first compound 0.000316 µM"}, "[20]": {"details": "second compound 0.1 µM, first compound 0.001 µM"}, "[21]": {"details": "second compound 0.1 µM, first compound 0.00316 µM"}, "[22]": {"details": "second compound 0.1 µM, first compound 0.01 µM"}, "[23]": {"details": "second compound 0.1 µM, first compound 0.0316 µM"}, "[24]": {"details": "second compound 0.1 µM, first compound 0.1 µM"}, "[25]": {"details": "second compound 0.316 µM, first compound 0.000316 µM"}, "[26]": {"details": "second compound 0.316 µM, first compound 0.001 µM"}, "[27]": {"details": "second compound 0.316 µM, first compound 0.00316 µM"}, "[28]": {"details": "second compound 0.316 µM, first compound 0.01 µM"}, "[29]": {"details": "second compound 0.316 µM, first compound 0.0316 µM"}, "[30]": {"details": "second compound 0.316 µM, first compound 0.1 µM"}, "[31]": {"details": "second compound 1 µM, first compound 0.000316 µM"}, "[32]": {"details": "second compound 1 µM, first compound 0.001 µM"}, "[33]": {"details": "second compound 1 µM, first compound 0.00316 µM"}, "[34]": {"details": "second compound 1 µM, first compound 0.01 µM"}, "[35]": {"details": "second compound 1 µM, first compound 0.0316 µM"}, "[36]": {"details": "second compound 1 µM, first compound 0.1 µM"}}, "data": [{"smiles": "CC(=O)c1c(C)c2cnc(Nc3ccc(N4CCNCC4)cn3)nc2n(C2CCCC2)c1=O", "note": "+ COc1c(OCCCN2CCOCC2)ccc2c3n(c(=NC(=O)c4cnc(N)nc4)nc12)CCN3", "values": [{"measurement": "IC50", "setting": "second compound 0.00316 µM", "result": "> 100", "unit": "nM"}, {"measurement": "IC50", "setting": "second compound 0.01 µM", "result": "> 100", "unit": "nM"}, {"measurement": "IC50", "setting": "second compound 0.0316 µM", "result": "> 100", "unit": "nM"}, {"measurement": "IC50", "setting": "second compound 0.1 µM", "result": "> 100", "unit": "nM"}, {"measurement": "IC50", "setting": "second compound 0.316 µM", "result": "< 0.316", "unit": "nM"}, {"measurement": "IC50", "setting": "second compound 1 µM", "result": "< 0.316", "unit": "nM"}, {"measurement": "viability, T/C", "setting": "[1]", "result": 99.6, "unit": "%"}, {"measurement": "viability, T/C", "setting": "[2]", "result": 98.4, "unit": "%"}, {"measurement": "viability, T/C", "setting": "[3]", "result": 99.8, "unit": "%"}, {"measurement": "viability, T/C", "setting": "[4]", "result": 97, "unit": "%"}, {"measurement": "viability, T/C", "setting": "[5]", "result": 101, "unit": "%"}, {"measurement": "viability, T/C", "setting": "[6]", "result": 89.2, "unit": "%"}, {"measurement": "viability, T/C", "setting": "[7]", "result": 101, "unit": "%"}, {"measurement": "viability, T/C", "setting": "[8]", "result": 98.8, "unit": "%"}, {"measurement": "viability, T/C", "setting": "[9]", "result": 103, "unit": "%"}, {"measurement": "viability, T/C", "setting": "[10]", "result": 91.5, "unit": "%"}, {"measurement": "viability, T/C", "setting": "[11]", "result": 95.4, "unit": "%"}, {"measurement": "viability, T/C", "setting": "[12]", "result": 83.4, "unit": "%"}, {"measurement": "viability, T/C", "setting": "[13]", "result": 93.3, "unit": "%"}, {"measurement": "viability, T/C", "setting": "[14]", "result": 89.3, "unit": "%"}, {"measurement": "viability, T/C", "setting": "[15]", "result": 93.3, "unit": "%"}, {"measurement": "viability, T/C", "setting": "[16]", "result": 87.4, "unit": "%"}, {"measurement": "viability, T/C", "setting": "[17]", "result": 83.8, "unit": "%"}, {"measurement": "viability, T/C", "setting": "[18]", "result": 62.9, "unit": "%"}, {"measurement": "viability, T/C", "setting": "[19]", "result": 84.1, "unit": "%"}, {"measurement": "viability, T/C", "setting": "[20]", "result": 69.7, "unit": "%"}, {"measurement": "viability, T/C", "setting": "[21]", "result": 73.7, "unit": "%"}, {"measurement": "viability, T/C", "setting": "[22]", "result": 72.8, "unit": "%"}, {"measurement": "viability, T/C", "setting": "[23]", "result": 67.9, "unit": "%"}, {"measurement": "viability, T/C", "setting": "[24]", "result": 53.1, "unit": "%"}, {"measurement": "viability, T/C", "setting": "[25]", "result": 50.7, "unit": "%"}, {"measurement": "viability, T/C", "setting": "[26]", "result": 45.7, "unit": "%"}, {"measurement": "viability, T/C", "setting": "[27]", "result": 42.3, "unit": "%"}, {"measurement": "viability, T/C", "setting": "[28]", "result": 41.8, "unit": "%"}, {"measurement": "viability, T/C", "setting": "[29]", "result": 49.6, "unit": "%"}, {"measurement": "viability, T/C", "setting": "[30]", "result": 38.1, "unit": "%"}, {"measurement": "viability, T/C", "setting": "[31]", "result": 23.1, "unit": "%"}, {"measurement": "viability, T/C", "setting": "[32]", "result": 17.9, "unit": "%"}, {"measurement": "viability, T/C", "setting": "[33]", "result": 16.4, "unit": "%"}, {"measurement": "viability, T/C", "setting": "[34]", "result": 19.7, "unit": "%"}, {"measurement": "viability, T/C", "setting": "[35]", "result": 21, "unit": "%"}, {"measurement": "viability, T/C", "setting": "[36]", "result": 15.2, "unit": "%"}]}, {"smiles": "CC(C)n1nc(-c2ccc3oc(N)nc3c2)c2c(N)ncnc21", "note": "+ COc1c(OCCCN2CCOCC2)ccc2c3n(c(=NC(=O)c4cnc(N)nc4)nc12)CCN3", "values": [{"measurement": "IC50", "setting": "second compound 0.00316 µM", "result": "> 100", "unit": "nM"}, {"measurement": "IC50", "setting": "second compound 0.01 µM", "result": "> 100", "unit": "nM"}, {"measurement": "IC50", "setting": "second compound 0.0316 µM", "result": 78.3, "unit": "nM"}, {"measurement": "IC50", "setting": "second compound 0.1 µM", "result": 51.8, "unit": "nM"}, {"measurement": "IC50", "setting": "second compound 0.316 µM", "result": 4.51, "unit": "nM"}, {"measurement": "IC50", "setting": "second compound 1 µM", "result": "< 0.316", "unit": "nM"}, {"measurement": "viability, T/C", "setting": "[1]", "result": 99.9, "unit": "%"}, {"measurement": "viability, T/C", "setting": "[2]", "result": 108, "unit": "%"}, {"measurement": "viability, T/C", "setting": "[3]", "result": 101, "unit": "%"}, {"measurement": "viability, T/C", "setting": "[4]", "result": 106, "unit": "%"}, {"measurement": "viability, T/C", "setting": "[5]", "result": 108, "unit": "%"}, {"measurement": "viability, T/C", "setting": "[6]", "result": 77.5, "unit": "%"}, {"measurement": "viability, T/C", "setting": "[7]", "result": 106, "unit": "%"}, {"measurement": "viability, T/C", "setting": "[8]", "result": 102, "unit": "%"}, {"measurement": "viability, T/C", "setting": "[9]", "result": 99.3, "unit": "%"}, {"measurement": "viability, T/C", "setting": "[10]", "result": 100, "unit": "%"}, {"measurement": "viability, T/C", "setting": "[11]", "result": 99.2, "unit": "%"}, {"measurement": "viability, T/C", "setting": "[12]", "result": 57.6, "unit": "%"}, {"measurement": "viability, T/C", "setting": "[13]", "result": 94.1, "unit": "%"}, {"measurement": "viability, T/C", "setting": "[14]", "result": 98.7, "unit": "%"}, {"measurement": "viability, T/C", "setting": "[15]", "result": 89.2, "unit": "%"}, {"measurement": "viability, T/C", "setting": "[16]", "result": 94.2, "unit": "%"}, {"measurement": "viability, T/C", "setting": "[17]", "result": 85.6, "unit": "%"}, {"measurement": "viability, T/C", "setting": "[18]", "result": 40.4, "unit": "%"}, {"measurement": "viability, T/C", "setting": "[19]", "result": 80.8, "unit": "%"}, {"measurement": "viability, T/C", "setting": "[20]", "result": 85.5, "unit": "%"}, {"measurement": "viability, T/C", "setting": "[21]", "result": 79, "unit": "%"}, {"measurement": "viability, T/C", "setting": "[22]", "result": 72.8, "unit": "%"}, {"measurement": "viability, T/C", "setting": "[23]", "result": 62.9, "unit": "%"}, {"measurement": "viability, T/C", "setting": "[24]", "result": 34.1, "unit": "%"}, {"measurement": "viability, T/C", "setting": "[25]", "result": 64.7, "unit": "%"}, {"measurement": "viability, T/C", "setting": "[26]", "result": 56.3, "unit": "%"}, {"measurement": "viability, T/C", "setting": "[27]", "result": 54.2, "unit": "%"}, {"measurement": "viability, T/C", "setting": "[28]", "result": 43.9, "unit": "%"}, {"measurement": "viability, T/C", "setting": "[29]", "result": 35.5, "unit": "%"}, {"measurement": "viability, T/C", "setting": "[30]", "result": 22.4, "unit": "%"}, {"measurement": "viability, T/C", "setting": "[31]", "result": 20.8, "unit": "%"}, {"measurement": "viability, T/C", "setting": "[32]", "result": 20.7, "unit": "%"}, {"measurement": "viability, T/C", "setting": "[33]", "result": 22.3, "unit": "%"}, {"measurement": "viability, T/C", "setting": "[34]", "result": 20.9, "unit": "%"}, {"measurement": "viability, T/C", "setting": "[35]", "result": 20.2, "unit": "%"}, {"measurement": "viability, T/C", "setting": "[36]", "result": 10.6, "unit": "%"}]}]}
